Experimental data reported in patent EP0088621A2, “Compositions for use in accelerating onset of sleep” (MASSACHUSETTS INSTITUTE OF TECHNOLOGY, priority 1982, dated 1983).

Set-up: species or system Normal adult volunteers
Conditions: in vivo
Experimental: Normal adult volunteers consumed 1 g of tryptophan; with or without 10 g of glucose; blood samples were assayed for tryptophan, LNAA, and their ratio after various intervals. Control subjects received only the tryptophan. The results are shown in Table I, 1 hour after administration.

increase of the plasma tryptophan/LNAA ratio by glucose: 40-50%
SMILES: OC[C@H]1OC(O)[C@H](O)[C@@H](O)[C@@H]1O (stereo partly shown) [glucose]
